This is an account of results in US9408793B2, “Selective compounds inhibiting CYP26A1 useful in cosmetic and pharmaceutical compositions” (GALDERMA RESEARCH & DEVELOPMENT, priority 2012, dated 2016).

Assay [1] concerns the target T1, human CYP26B1 enzyme (Homo sapiens, UniProt Q9NR63).
T1 construct: expressed in transfected cells; host or cells: HeLa cells
T1 sequence (Q9NR63 1-512): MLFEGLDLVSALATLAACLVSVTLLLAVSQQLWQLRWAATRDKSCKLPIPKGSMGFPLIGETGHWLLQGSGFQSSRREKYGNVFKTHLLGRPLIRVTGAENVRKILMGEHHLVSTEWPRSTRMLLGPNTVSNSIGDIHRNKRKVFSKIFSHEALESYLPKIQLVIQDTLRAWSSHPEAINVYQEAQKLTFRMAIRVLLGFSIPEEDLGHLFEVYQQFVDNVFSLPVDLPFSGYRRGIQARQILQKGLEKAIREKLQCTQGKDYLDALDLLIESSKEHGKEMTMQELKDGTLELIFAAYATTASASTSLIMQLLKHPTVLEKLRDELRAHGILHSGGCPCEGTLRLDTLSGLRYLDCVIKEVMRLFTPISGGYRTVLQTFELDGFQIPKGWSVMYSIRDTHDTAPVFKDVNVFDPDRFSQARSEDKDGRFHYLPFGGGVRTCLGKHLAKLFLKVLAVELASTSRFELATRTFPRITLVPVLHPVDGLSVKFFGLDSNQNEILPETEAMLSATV
The experiment in a line: Cell test, HeLa cells overexpressing human CYP26B1, metabolism of radiolabelled retinoic acid (3H-RA). Particulars: 3 h incubation with 3H-RA, mean of two experiments. In kind it is cell-based. On the procedure:
(§1) A cell test using HeLa cells overexpressing either the human CYP26A1 enzyme or the human CYP26B1 enzyme, similar to that described in White et al.(Proc Natl Acad Sci U S A. 2000 Jun 6; 97(12): 6403-8), was used. […] After the incubation time of 3 h, the reaction was stopped and an extraction phase was carried out in order to separate the aqueous and organic layers. The amount of radioactivity present in the aqueous layer was then measured as an indicator of the amount of RA which was metabolized.
A first experiment using 3 different concentrations of compounds according to the invention (0.1, 1 and 10 μM) was carried out in order to evaluate the inhibitory activity of the compounds. A second test was then carried out with a wide range of concentrations (0.01, 0.1, 0.5, 1, 5 and 10 μM). The results obtained during these two tests are similar.
The following table lists the mean of the AC50 values obtained over these two experiments.

Assay [2] deals with stratum corneum. Briefly: Measurement of the thickness of the stratum corneum in Fuzzy rats. Format: in vivo, rat. Particulars: for Thickness of the stratum corneum (μm) / Thickness of the stratum corneum relative to the carrier: male Fuzzy rats, topical, 24 days after the treatment. How it is done: Male Fuzzy rats are separated into four batches each comprising five rats. A topical treatment is carried out on each batch by administering, respectively, a carrier acting as a control, a dose of 0.000001% of retinol, a dose of 0.1% of retinol and a dose of 0.3% of a compound according to the invention corresponding to Example 1.
24 days after the treatment, the rats are euthanized and a 10 μm section of skin is sampled in order to perform a biopsy. A 1M NaOH solution is added to each section in order to soften the stratum corneum. The photos under a microscope are taken in a time period of 2 minutes after the addition of the 1M NaOH solution.
The table below presents the results on the thickness of the stratum corneum for the various batches.

Assay [3] addresses T2, human CYP26A1 enzyme (Homo sapiens, UniProt O43174).
T2 construct: expressed in transfected cells; host or cells: HeLa cells
T2 sequence (O43174 1-497): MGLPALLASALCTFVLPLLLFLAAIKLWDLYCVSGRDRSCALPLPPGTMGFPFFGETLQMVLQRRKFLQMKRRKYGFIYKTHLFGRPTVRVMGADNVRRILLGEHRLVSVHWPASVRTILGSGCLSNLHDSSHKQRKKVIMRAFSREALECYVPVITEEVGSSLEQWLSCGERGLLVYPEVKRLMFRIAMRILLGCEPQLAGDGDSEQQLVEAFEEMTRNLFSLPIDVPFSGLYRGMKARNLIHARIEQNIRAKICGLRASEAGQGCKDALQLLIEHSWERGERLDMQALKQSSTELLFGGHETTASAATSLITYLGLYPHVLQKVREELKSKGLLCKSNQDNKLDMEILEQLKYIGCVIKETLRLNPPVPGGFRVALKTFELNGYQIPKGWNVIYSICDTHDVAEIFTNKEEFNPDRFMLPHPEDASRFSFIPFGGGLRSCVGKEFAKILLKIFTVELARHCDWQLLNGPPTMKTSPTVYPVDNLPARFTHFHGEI
Briefly: Cell test, HeLa cells overexpressing human CYP26A1, metabolism of radiolabelled retinoic acid (3H-RA). Particulars: for AC50: HeLa cells overexpressing human CYP26A1, 3 h incubation with 3H-RA, mean of two experiments; for CYP26B1/CYP26A1 (selectivity ratio of mean AC50): ratio of AC50 CYP26B1 to AC50 CYP26A1; for Isoform activity in words: CYP26A1 versus CYP26B1, HeLa cell test. Format: cell-based. On the procedure:
as §1
A first experiment using 3 different concentrations of compounds according to the invention (0.1, 1 and 10 μM) was carried out in order to evaluate the inhibitory activity of the compounds. A second test was then carried out with a wide range of concentrations (0.01, 0.1, 0.5, 1, 5 and 10 μM).

Assay [4] has as its target T3, CYP26B1 isoform (Homo sapiens, UniProt Q9NR63).
T3 sequence (Q9NR63 1-512): T1 sequence (Q9NR63 1-512)
Particulars: background statement; cited from earlier work.

For the molecule `CC1(C)CCC(C)(C)c2cc(S(=O)(=O)CCc3ccc(C(=O)O)cc3)ccc21` [Compound 1, 4-[2-(5,5,8,8-Tetramethyl-5,6,7,8-tetrahydronaphthalene-2-sulphonyl)ethyl]benzoic acid], in assay [1], the concentration at half-maximal activity (AC50) – broadly, the concentration at which the activity in the assay is half-maximal – stood at 50300 nM. In assay [2] (dose 0.3%), the “Thickness of the stratum corneum (μm)” value was found to be 24.07 μm and the “Thickness of the stratum corneum relative to the carrier” value is on record as 0.57. In assay [2] (rats treated with 0.3% versus carrier), the “Photographs of the keratinous layer (FIGS. 2 and 3), result in words” value is reported as “decrease in the thickness of the stratum corneum”. Moreover, in assay [3], the half-maximal activity concentration (AC50) worked out at 190 nM and the “CYP26B1/CYP26A1 (selectivity ratio of mean AC50)” value is on record as 261.50.

As for `Clc1cccc(C(c2ccc3[nH]cnc3c2)n2ccnc2)c1` (centres unmarked) [Liarozole], the concentration at half-maximal activity (AC50) in assay [1] came out at 320 nM. Further, the “Isoform activity in words” value in assay [3] was “more active on CYP26B1 than on CYP26A1”.

`CCC(CC)C(c1ccc(Nc2nc3ccccc3s2)cc1)n1cncn1` (centres unmarked) [Rambazole] yielded a concentration at half-maximal activity (AC50) in assay [1] of 64 nM. Moreover, in assay [3], the “Isoform activity in words” value is reported as “active on the inhibition of the activity of the two isoforms”, the activity was half-maximal at 4 nM (AC50) and the “CYP26B1/CYP26A1 (selectivity ratio of mean AC50)” value turned out to be 16.82. In assay [4], the “Activity on the CYP26B1 isoform” value is reported as “about 62 nM”.

For `CC1=C(/C=C/C(C)=C/C=C/C(C)=C/CO)C(C)(C)CCC1` [Retinol], in assay [2] (dose 0.000001%), the “Thickness of the stratum corneum (μm)” value was 41.60 μm and the “Thickness of the stratum corneum relative to the carrier” value worked out at 0.98. Also, in assay [2] (dose 0.1%), the “Thickness of the stratum corneum (μm)” value was found to be 26.24 μm and the “Thickness of the stratum corneum relative to the carrier” value came to 0.62.
